The values that follow come from patent publication US5955481A, “Pyridine type thiazolidines” (Nissan Chemical Industries, Ltd., priority 1994, dated 1999).

Assay [1] concerns bovine serum albumin (BSA). The assay is described as follows: Measurement of Anti-Glycation Effect. Type of assay: biochemical. Conditions: for % decrease (anti-glycation effect, fluorescence per mg protein, percentage of the control): 5% BSA-0.5M G6P, 37° C., 10 day-incubation; for anti-glycation activities (in words): Test Example 2. The method, then: Because glycated protein is fluorescent, the amount of glycated protein can be determined using fluorescence, according to the previous reports (Doi et al., Proc. Natl. Acad. Sci. U.S.A., 89, 2873-2877, 1992: Mitsuhashi et al., Diabetes, vol. 42, 826-832, 1993). The experimental procedure was modified as follows. Five percent of bovine serum albumin (BSA) containing 0.5M glucose-6-phosphate-2Na (5% BSA-0.5M G6P) was filtration-sterilized (with 0.45 μm-pore size filter) and was incubated at 37° C.; positive control was incubated with 1% dimethyl sulfoxide (DMSO) at 37° C.; blank was incubated at 4° C. All test-compounds dissolved in DMSO (final concentration of DMSO was less than 1%) were added in 5% BSA-0.5M G6P. After 10 day-incubation 5% BSA-0.5M G6P with a compound, positive control and blank were dialyzed against 2L phosphate buffered saline for 24 hours (fractional molecular weight: 12,000-14,000).The dialyzed solution was diluted in water 4 times and was determined the fluorescence (ex. 370 nm-em. 440 nm). The protein concentration of the dialyzed solution (10 μL of which was diluted to 20 times with distilled water) was determined by Lowry-method and the fluorescence was expressed per mg protein. Control (100%) was positive control minus blank. Anti-glycation effect was calculated as the percentage of the control.

Another assay deals with KK mouse. The assay is described as follows: Measurement of Hypoglycemic Effect, KK mouse. Type of assay: in vivo. The conditions noted are these: for % decrease (percentage of reducing blood glucose): KK mouse, 30 mg/kg, oral, 24 hours after administration. The method, then:
(§1) KK mouse and KKAy mouse, NIDDM models (male, 6-7 weeks old) (Nakamura, Proc. Jpn. Acad. 38, 348-352, 1962; Iwatsuka et al. Endocrinol Jpn, 17, 23-35, 1970) were purchased from Nihon Clea. They were allowed free access to high-calories' chow (CMF, Oriental Yeast) and water. Around 40 g-weighted mice were examined.
(§2) Blood (20 μl) collected from the retro-orbital sinus was diluted in 60 units heparin sodium-solution and was centrifuged in a microfuge. The supernatant was assayed. The glucose concentration was determined by glucose oxidase method (Glucose Analyzer II, Beckman).
(§3) All test-compounds suspended in 0.5% carboxy-methyl cellulose (CMC)-saline were orally administered in mice. Before and 24 hours after the administration, blood was collected from the retro-orbital sinus, and a blood glucose value was measured in the above-mentioned manner. The hypoglycemic activity was expressed by the percentage of reducing blood glucose calculated before and 24 hours after the administration.

The test system of a further assay is KKA^y mouse. The assay is described as follows: Measurement of Hypoglycemic Effect, KKAy mouse. Type of assay: in vivo. The conditions noted are these: oral, 24 hours after administration, read-out: % decrease (percentage of reducing blood glucose). The method, then: as §1, §2, §3
The subject of assay [2] is AGE protein on arterial walls. Conditions: rat suffering from diabetes; Science, vol. 232, p. 1629 (1986); cited from earlier work.

Each structure is given as a SMILES string.

On to `Cc1oc(-c2ccccc2)nc1CCC(=O)c1ccc(CC2SC(=O)NC2=O)cc1` (stereo not shown) [CP-86325], for which the “% decrease (anti-glycation effect, fluorescence per mg protein, percentage of the control)” value in assay [1] (100 μg/ml) came out at 10.3%. In assay [1], the “anti-glycation activities (in words)” value is “did not exhibit anti-glycation activities”. The “% decrease (percentage of reducing blood glucose)” value in the assay with KK mouse came to 39.4%. Moreover, in the assay on KKA^y mouse, the inhibition in vivo at 30 mg/kg stood at 39.5%.
For `Cc1c(C)c2c(c(C)c1O)CCC(C)(COc1ccc(CC3SC(=O)NC3=O)cc1)O2` (stereo not shown) [CS-045], in assay [1] (100 μg/ml), the “% decrease (anti-glycation effect, fluorescence per mg protein, percentage of the control)” value worked out at 10.1%. In assay [1], the “anti-glycation activities (in words)” value is “did not exhibit anti-glycation activities”. Also, the “% decrease (percentage of reducing blood glucose)” value with KK mouse was 24.2%. Further, the inhibition in vivo at 30 mg/kg in the assay on KKA^y mouse was -3%.
With `Cc1oc(-c2ccccc2)nc1C(=O)COc1ccc(C=C2SC(=O)NC2=O)nc1` [I-1a-1, 5-((5-(2-oxo-2-(2-phenyl-5-methyl-4-oxazolyl)ethoxy)-2-pyridyl)methylidene)thiazolidin-2,4-dione], in assay [1] (100 μg/ml), the “% decrease (anti-glycation effect, fluorescence per mg protein, percentage of the control)” value was determined as 42.3%. Besides, in the assay with KK mouse, the “% decrease (percentage of reducing blood glucose)” value is 48.9%. Moreover, the inhibition in vivo at 30 mg/kg in the assay with KKA^y mouse worked out at 48.6%.
For the compound `COCOc1ccc(C=C2SC(=O)NC2=O)nc1` [I-1a-2], the “% decrease (anti-glycation effect, fluorescence per mg protein, percentage of the control)” value in assay [1] (100 μg/ml) was 24.1%.
`O=C1NC(=O)C(=Cc2ccc(OCc3ccccc3)cn2)S1` [I-1a-3]: the “% decrease (anti-glycation effect, fluorescence per mg protein, percentage of the control)” value in assay [1] (100 μg/ml) was determined as 34.1%.
Consider `Cc1oc(-c2ccc(-c3ccccc3)cc2)nc1C(O)COc1ccc(C=C2SC(=O)NC2=O)nc1` (stereo not shown) [I-1a-43], for which the inhibition in vivo at 30 mg/kg in the assay on KKA^y mouse stood at 47.3%.
Take `Cc1oc(-c2ccccc2)nc1C(=O)COc1ccc(CC2SC(=O)NC2=O)nc1` (stereo not shown) [I-2a-1, 5-((5-(2-oxo-2-(2-phenyl-5-methyl-4-oxazolyl)ethoxy)-2-pyridyl)methyl)thiazolidin-2,4-dione]: the “% decrease (percentage of reducing blood glucose)” value in the assay on KK mouse stood at 65.1%. In the assay with KKA^y mouse, the inhibition in vivo at 30 mg/kg is 50%.
With `COCOc1ccc(CC2SC(=O)NC2=O)nc1` (stereo not shown) [I-2a-2], the inhibition in vivo at 30 mg/kg with KKA^y mouse was found to be 39.9%.
With `Cc1cccc(-c2nc(C(=O)COc3ccc(CC4SC(=O)NC4=O)nc3)c(C)o2)c1` (stereo not shown) [I-2a-5], the inhibition in vivo at 30 mg/kg in the assay with KKA^y mouse amounted to 47.7%.
Consider `Cc1oc(-c2ccc(F)cc2)nc1C(O)COc1ccc(CC2SC(=O)NC2=O)nc1` (stereo not shown) [I-2a-30], for which the inhibition in vivo at 30 mg/kg in the assay on KKA^y mouse was 37.2%.
In the case of `Cc1oc(-c2ccc(-c3ccccc3)cc2)nc1C(O)COc1ccc(CC2SC(=O)NC2=O)nc1` (stereo not shown) [I-2a-31], the inhibition in vivo at 30 mg/kg with KKA^y mouse amounted to 52.2%.
For `Cc1ccc(-c2nc(C(O)COc3ccc(CC4SC(=O)NC4=O)nc3)c(C)o2)cc1` (stereo not shown) [I-2a-32], the inhibition in vivo at 30 mg/kg in the assay with KKA^y mouse is 35.4%.
For the compound `N=C(N)NN` [aminoguanidine], the “prevention of formation of AGE protein on arterial walls (in words)” value in assay [2] is listed as “prevents formation of AGE protein on arterial walls”. Moreover, the “% decrease (anti-glycation effect, fluorescence per mg protein, percentage of the control)” value in assay [1] (1 mM) was determined as 21.4%; in assay [1] (10 mM), 48.9%; in assay [1] (100 mM), 80.2%.
As to `COc1ccc(Cl)cc1C(=O)NCCc1ccc(S(=O)(=O)NC(=O)NC2CCCCC2)cc1` [glibenclamide], the “% decrease (percentage of reducing blood glucose)” value with KK mouse is reported as -3.6%. Besides, the “hypoglycemic activity (in words)” value in the assay with KK mouse (Test Example 1, KK and KKAy mouse, 30 mg/kg oral) is listed as “did not exhibit hypoglycemic activity”. The inhibition in vivo at 30 mg/kg in the assay with KKA^y mouse was -2.5%.
